Consider three molecules from publication PMC9023544, “Ketone-selenoesters as potential anticancer and multidrug resistance modulation agents in 2D and 3D ovarian and breast cancer in vitro models” (Scientific Reports, 2022).

The subject of one assay is HOC/ADR. As to the kind of experiment: Sensitization of MDR cell line to Adriamycin. Particulars: IC50 of Adriamycin / IC50 of Adriamycin with IC10 dose of compound. It counts as cell-based, human. The method, then:
To determine the sensitization potential of compounds, HOC/ADR and MCF-7/PAX were used. Based on the cytotoxic potential of the compounds against several cancer and non-cancerous cell lines (Table 1), the concentrations of applied compounds were adjusted. IC10 values was considered as the concentrations, which should not decrease the cell viability under 90%. After the addition of compounds, Adriamycin (concentration range 0.1–20 µM) and paclitaxel (concentration range 0.1–10 µM) were added to HOC/ADR and MCF-7/PAX, respectively. The sensitization potential of the compounds was determined as the ratio of the IC50 of cytostatic agent (Adriamycin/paclitaxel) to the IC50 of cytostatic agent affected by the compound in concentration corresponding to the IC10 value. Fold change greater than 1 indicated synergic effect of cytostatic agent and the tested compound.
After that, the plates were washed 1× with PBS and fresh DMEM medium supplemented with tested compounds at final concentration corresponding their IC10 value was added, except for positive control wells. Subsequently, Adriamycin (concentration range 0.1–20 µM) or paclitaxel (concentration range 0.1–10 µM) was added to the appropriate cell line for 72 h. After incubation, the cells were washed 1× with PBS and the resazurin solution (0.03 mg/mL) was added to evaluate the cell viability as described above. IC50 values of cytostatics were calculated for both the control and compounds; a fold change was counted up. When this fold change is higher than 1 indicates a synergism between the tested cytostatic agent and the compound, while a fold change lower than 1 means an antagonism. Fold change=IC50value of cytostatic treated cells only/IC50value of cytostatic treated cells in addition of the compound

The subject of assay [1] is MCF-7 (human breast adenocarcinoma). As to the kind of experiment: Cytotoxic activity, 2D, resazurin, 72 h. To be noted: for IC50: Homo sapiens, MCF7, 72 h, read-out: MCF-7 IC50; for SI HEK293/MCF-7: IC50 HEK293 / IC50 MCF-7. It counts as cell-based.
For a further assay, the system named is MCF-7 spheroids. The assay is described as follows: 3D spheroid formation. To be noted: 1 µM, whole treatment (24–72 h). The format is cell-based, human. The method, then: (§1) To monitor the effect of selenoesters on spheroid formation, HOC, HOC/ADR, MCF-7 and MCF-7/PAX cell lines were used. 24 h after HOC cells’ inoculation, the diameter of formed spheroids was measured. The spheroids with diameters above 200 µm are characterized by the presence of a concentration gradient of oxygen, nutrients, and metabolites. The ovarian cancer cells (HOC, HOC/ADR) formed aggregates in which single cells could be recognized (Figs. 3, 4). In contrast, breast cancer cell lines (MCF-7, MCF-7/PAX) (Figs. 5, 6) formed compact spheroids where individual cells could not be distinguished because of close cell–cell interactions. According to this fact, the easier penetration and action of compounds into spheroids of ovarian cancer cells is expected. Upon selenoesters’ addition, the images of spheroids were taken regularly to determine their areas relative to the control spheroids in medium containing the solvent (1% V/V DMSO).
(§2) Human ovarian and breast cancer cells (parental and resistant) were seeded into U bottom 96-well plates (VWR, Radnor, Pennsylvania, United States) coated with 0.8% SeaKem LE Agarose at a cell density 0.5 × 10^5 cells/mL (HOC, HOC/ADR) and 1 × 10^5 cell/mL (MCF-7, MCF-7/PAX) in 100 µL of medium with appropriate cytostatic agent. After 24 h, the plates were enriched with 100 µL of medium with tested compounds K3, K4, K7 at the final concentration of 1 µM, except for control cells (100 µL medium with 1% V/V DMSO). Spheroids were recorded 0; 24; 48 and 72 h after exposure to tested compounds by using the light microscope Axio Vert. A1 (Zeiss, Jena, Germany) with photo documentation equipment, Axiocam ICC 1 and Axio Vision 4.8 software (Zeiss), and the spheroid areas were determined by using ImageJ (National Institute of Health, Bethesda, Maryland, United States). Subsequently, a spheroid growth was calculated according to equation: Spheroid area%=SAS at t/SAC at t×100 where SAS represents the area of spheroids treated with the compound; SAC is the control spheroid area; and the exposure time (t = 0; 24; 48; 72 h).

The subject of another assay is HOC/ADR spheroids. The assay is described as follows: 3D spheroid formation. It counts as cell-based, human. To be noted: 1 µM. How it is done:
as §1, §2

Another assay relates to HOC spheroids. The assay is described as follows: 3D spheroid formation. It counts as cell-based. To be noted: Homo sapiens, 24 h, read-out: inhibition of HOC spheroid growth. How it is done: as §1, with “According to this fact, the easier penetration and action of compounds into spheroids of ovarian cancer cells is expected. Upon selenoesters’ addition, the images of spheroids were taken regularly to determine their areas relative to the control spheroids in medium containing the solvent (1% V/V DMSO).” left out
Human ovarian and breast cancer cells (parental and resistant) were seeded into U bottom 96-well plates (VWR, Radnor, Pennsylvania, United States) coated with 0.8% SeaKem LE Agarose at a cell density 0.5 × 10^5 cells/mL (HOC, HOC/ADR) and 1 × 10^5 cell/mL (MCF-7, MCF-7/PAX) in 100 µL of medium with appropriate cytostatic agent. […] Spheroids were recorded 0; 24; 48 and 72 h after exposure to tested compounds by using the light microscope Axio Vert. A1 (Zeiss, Jena, Germany) with photo documentation equipment, Axiocam ICC 1 and Axio Vision 4.8 software (Zeiss), and the spheroid areas were determined by using ImageJ (National Institute of Health, Bethesda, Maryland, United States). […]

The subject of a further assay is MCF-7/PAX spheroids. As to the kind of experiment: 3D spheroid formation. The format is cell-based, human. To be noted: 1 µM, first 24 h. The method, then:
as §1, §2

Bounds are passed on as bounds.

As usually defined, the IC50 is the concentration needed to halve the response being measured. Consider `CC(=O)C[Se]C(=O)c1ccccc1C(F)(F)F` [K4], for which, in the assay with HOC/ADR, the Fold change entry was “(1.4 ± 0.1)×”. In assay [1], the IC50 worked out at 1800 ± 100 nM and the “SI HEK293/MCF-7” value came to 2.9 ± 0.3.
As to `CC(=O)C[Se]C(=O)c1ccc(Br)cc1` [K3], in the assay with HOC/ADR, the Fold change result was “(1.4 ± 0.1)×”. Besides, the “MCF-7 spheroid growth relative to control” value in the assay on MCF-7 spheroids is “under 80%”. Also, the “decrease of HOC/ADR spheroid growth” value in the assay with HOC/ADR spheroids (first 24 h) is on record as 45%. In assay [1], the half-inhibitory concentration (IC50) is 2000 ± 500 nM and the “SI HEK293/MCF-7” value is 1.2 ± 0.3.
The inhibition is the change of the read-out against control, counted positive when it falls. Turning to `CC(=O)C[Se]C(=O)c1ccc(C(C)(C)C)cc1` [K7], the inhibition at 1 µM with HOC spheroids was above 40%. The “HOC/ADR spheroid area compared to the control” value with HOC/ADR spheroids is given as 75%. Further, the “effect on MCF-7/PAX spheroid growth (in words)” value with MCF-7/PAX spheroids was “slowed down”. In assay [1], the concentration for half-maximal inhibition (IC50) was determined as 1900 ± 100 nM and the “SI HEK293/MCF-7” value is 0.8 ± 0.1.
